Source: article PMC12332667, “Role of Structural Modifications in Peptidomimetic Compounds as Potential Antimicrobial Agents against Staphylococcus aureus and Streptococcus pyogenes: Balancing Bioavailability, Safety, and Antimicrobial Activity” (ACS Omega, 2025)
In brackets after ≈: the same amount, converted by molar mass. Residues, ends and D or L forms follow the SMILES beside them.

How the values were obtained:
[1] = test system: human dermal fibroblast cell line (46BR.1N); test: XTT cell proliferation assay, fibroblasts; type: cell-based; conditions: for effect on proliferation, in words: 48 and 72 h, 0.01–150 μg/mL
Procedure, shortened: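 Proliferation was read as XTT absorbance at 490 nm after 4 h of reagent incubation, following 48 or 72 h of peptide exposure in serum-free HG-DMEM (37 °C, 5% CO2). The 72 h arm included a half-medium change with second peptide dose at 48 h. Significance by Mann–Whitney U, p ≤ 0.05.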

[2] = test system: S. intemrdius c.i.; test: MIC/MBC broth microdilution, S. intermedius; type: cell-based, Staphylococcus intermedius
Procedure, shortened: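 Bacteria inoculated at about 10^5 CFU/mL in BHI broth and incubated 18 h at 37 °C with serial dilutions of peptidomimetics, NCCLS microdilution format. MBC taken as lowest concentration leaving no more than 3 colonies (≥99.9% kill); MIC as lowest concentration without obvious growth (≥90% of untreated); solvent controls included.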

Structure (SMILES)	effect on proliferation, in words ([1]; XTT)	MBC ([2]; H2O) [µg/mL]	MIC ([2]; H2O) [µg/mL]	MIC ([2]; water additive DMSO) [µg/mL]	MBC ([2]; water additive EtOH) [µg/mL]	MIC ([2]; water additive EtOH) [µg/mL]	further results
CC(C)[C@@H](CNC(=O)C(=Cc1ccccc1)c1ccccc1)NC(=O)[C@H](CCCNC(=N)N)NC(=O)[C@H](CCCCNC(=N)N)NC(=O)OCc1ccccc1 [Compound A-192]	negative impact	16 (≈ 20.8 µM)	8 (≈ 10.4 µM)	8 (≈ 10.4 µM)	16 (≈ 20.8 µM)	8 (≈ 10.4 µM)	proliferation relative to control at 100 and 150 μg/mL ([1]; XTT): 25%; proliferation relative to control at 50 μg/mL ([1]; XTT, 50 μg/mL): 50%; MBC ([2]; water additive DMSO): 16 µg/mL (≈ 20.8 µM)
CC(C)[C@@H](CNC(=O)C(=Cc1ccccc1)c1ccccc1)NC(=O)[C@H](Cc1c[nH]cn1)NC(=O)[C@H](CCCCNC(=N)N)NC(=O)OCc1ccccc1 [Compound A-193]	–	32 (≈ 42.7 µM)	16 (≈ 21.3 µM)	32 (≈ 42.7 µM)	32 (≈ 42.7 µM)	16 (≈ 21.3 µM)	antiproliferative effect (decrease vs control) ([1]; up to 150 μg/mL, A-193 and A-179 after 48 h): over 50%
CC(C)[C@H](NC(=O)[C@H](Cc1c[nH]cn1)NC(=O)[C@H](CCCNC(=N)N)NC(=O)OCc1ccccc1)C(=O)NCCc1ccccc1 [Compound A-219] (HELM PEPTIDE1{[O=C(OCc1ccccc1)[*:2]].R.H.V.[c1ccc(CCN[*:1])cc1]}$$$$V2.0)	best pro-proliferative effect	–	–	–	–	–	pro-proliferative effect above control ([1]; A-196 0.01–10 μg/mL, A-219 above 0.1 μg/mL, A-213 lower concentrations): around 20%
CC(C)[C@H](NC(=O)[C@H](Cc1c[nH]cn1)NC(=O)[C@H](CCCCN)NC(=O)OCc1ccccc1)C(=O)NCCc1ccccc1 [Compound A-220] (HELM PEPTIDE1{[O=C(OCc1ccccc1)[*:2]].K.H.V.[c1ccc(CCN[*:1])cc1]}$$$$V2.0)	did not exert any negative impact	–	–	–	–	–	–
CC(C)[C@H](NC(=O)[C@H](CCCNC(=N)N)NC(=O)[C@H](CCCNC(=N)N)NC(=O)OCc1ccccc1)C(=O)NCCc1ccccc1 [Compound A-221] (HELM PEPTIDE1{[O=C(OCc1ccccc1)[*:2]].R.R.V.[c1ccc(CCN[*:1])cc1]}$$$$V2.0)	pro-proliferating effect at lower concentrations followed by an antiproliferative effect at higher concentrations	–	–	–	–	–	–
